# Measurements published in patent US9034359B2, “Composition comprising biodegradable hydrating ceramics for controlled drug delivery” (Lidds AB, priority 2003, dated 2015).
# Experiment: Dog study: plasma concentration of 2-hydroxyflutamide after implant in prostate tissue
# Assay type: in vivo
# Conditions: 30, 60 or 120 mg in calcium sulphate-water implant in prostate tissue
# Protocol: Composition according to example 1, composition 2, with three different 2-hydroxyflutamide (HT) concentrations, was tested in a dog study. The concentration profile of HT in prostate tissue in male dogs after local administration of the composition was investigated at different time points. Also a reference implant without HT was implanted in one dog.
# Three male dogs are given 30, 60 or 120 mg of 2-hydroxy-flutamide by local implant delivery system in the prostate tissue; the total implantation time was 3 weeks.
# The implant drug delivery system was inserted locally into the prostate tissue through sterile needles during rectal ultrasound guidance. The animals were under anesthesia during the insertion procedure.
# Blood samples were taken every day for the first week and then once a week for the remaining weeks. Plasma samples were collected in tubes with EDTA and the plasma were transferred to microtubes of 2 ml, (sterile kryotubes from Sarstedt; No. 694.005).
# The quantification of the parent drug, 2-hydroxyflutamide, in the plasma and tissue samples, was done by HPLC-MS analysis.
smiles,measurement,value
CC(C)(O)C(=O)Nc1ccc([N+](=O)[O-])c(C(F)(F)F)c1 [2-hydroxyflutamide],extended plasma profile duration,3 to 6 days
